This note sets out measurements from patent publication US10106552B2, “Compounds inhibiting eukaryotic elongation factor 2 kinase activity” (Longevica Pharmaceuticals, Inc., priority 2013, dated 2018).

By half-life is commonly meant how long it takes for the measured level to halve. One may read the Cmax as the peak of the concentration-time curve. One may read the IC50 as the concentration needed to halve the response being measured.

The subject of data set [1] is rat embryonic myocardium cell line H9C2. Put plainly: Doxorubicin-induced apoptosis, CellTiter-Glo cell viability. The conditions noted are these: for recovery, percent of original density: H9C2, 0.4 μM doxorubicin 24 hours. For orientation: ATP-based viability assays read luminescence as a measure of living cells.
Protocol: The cells were plated into 48-well plates at 0.2×10^5 cells per well and allowed to attach overnight. […] Cell viability was measured on days 1, 2, 3, and 6 using the Promega CellTiter-Glo® Luminescent Cell Viability Assay.
Data set [2] relates to breast cancer cell line MDA-MB-231. Kind of data set: Potentiation of doxorubicin effect, CellTiter-Glo cell viability. Format: cell-based. As for the experimental part: The potentiation of doxorubicin effect of eEF2K inhibition by Compound 35 in combination with doxorubicin was evaluated. The breast cancer cell line MDA-MB-231 (ATCC No. HTB-26) was incubated with 0.4 μM doxorubicin for 24 hours, with both a negative control (untreated) group and a group receiving only 10 μM Compound 35 but not doxorubicin.

Data set [3] in a line: Pharmacokinetic study, intravenous administration. The conditions noted are these: mouse, in vivo, male CD-1 mice, 1 mg/kg.
The test system of data set [4] is human bone osteosarcoma cancer cell line MG63. Kind of data set: Cell viability under normal conditions and nutrient deprivation, CellTiter-Glo. The class given is cell-based. The protocol:
The effect of eEF2K inhibition on the malignant human bone osteosarcoma cancer cell line MG63 (ATCC No. CRL-1427) was evaluated under both normal conditions and during nutrient deprivation. […] One group of cells were grown under normal conditions (advanced MEM/glutamine/10% FBS) and the other group of cells were switched to conditions of nutrient deprivation (HBSS/22 mM HEPES) twenty-four hours after plating. Each group was divided into three subsets: cells receiving no treatment; cells receiving vehicle (DMSO) and cells receiving 10 μM of Compound 35.

Data set [5] has as its target recombinant eEF2K (Homo sapiens (Human), UniProt O00418). Kind of data set: eEF2K Kinase-Glo luminescent kinase assay (ATP consumption, peptide substrate). The settings on record: average of two to four separate experimental measurements, each the average of three replicates. The class given is biochemical. The protocol:
The following compounds were synthesized using the general methods described above. In the table below, IC50 values are in μM and are the average of two to four separate experimental measurements, each consisting in turn of the average of three replicates. IC50 values were calculated using the methods as described in Example 2. MW was determined by mass spectroscopy analysis, and is expressed as M+1.
To determine the IC50 of compounds of the invention, recombinant eEF2K was diluted in an assay buffer in the presence of calmodulin, a calcium-binding messenger protein expressed in eukaryotic cells, and incubated with peptide substrate Ac-RKKYKFNEDTERRRFL in the presence of Adenosine-5′-triphosphate (ATP) and the test compound. The peptide substrate is efficiently and specifically phosphorylated by eEF2K at a single substrate concentration of 100 μM. Using this peptide, eEF2K activity can be quantitatively determined using a Kinase-Glo® luminescent kinase assay kit (Promega) that measures ATP consumption by EF2K during phosphorylation of the substrate. ATP conversion was recorded using Perkin-Elmer Victor Luminometer. Data was plotted using GraphPad software and IC50 was calculated using 3-parameter sigmoidal curve fit.

On to `COc1cccc2c1C(=O)c1c(O)c3c(c(O)c1C2=O)C[C@@](O)(C(=O)CO)C[C@@H]3O[C@H]1C[C@H](N)[C@H](O)[C@H](C)O1` [doxorubicin, reference compound], for which, in data set [1] (H9C2, after doxorubicin was removed after 24 hours), the “proliferation of remaining viable cells” value is given as “failed to proliferate”. In data set [1] (H9C2, control arm, 0.4 μM doxorubicin for 24 hours), this compound returned a cell death of 65%. Further, in data set [2] (MDA-MB-231, 0.4 μM doxorubicin for 24 hours alone, by day 6), the “percent of viable cells” value was “increased slightly”. For `CC1(C)CCc2c(nc3sc(C(N)=O)c(N)c3c2-c2cncs2)C1` [Compound 35, 3-Amino-7,7-dimethyl-4-thiazol-5-yl-5,6,7,8-tetrahydro-thieno[2,3-b]quinoline-2-carboxylic acid amide], in data set [3], the half-life stood at 34 min. In data set [3] (at five minutes), the Cmax came to 356 ng/mL. Besides, the viability at 10 µM in data set [4] (Homo sapiens, MG-63, 144 h, MG63, nutrient deprivation (HBSS/22 mM HEPES), by day 6, read-out: percent viable cells) is less than 10%. Also, the cell growth result in data set [4] (MG63, normal conditions (advanced MEM/glutamine/10% FBS), 10 μM) is given as “significant growth”. Also, the “protection of H9C2 cells from doxorubicin-induced toxicity” value in data set [1] (0.4 μM doxorubicin 24 hours, 2 μM or 10 μM compound twice daily for 72 hours) was “robust, dose-dependent protection”. Moreover, the “recovery, percent of original density” value in data set [1] (2 μM compound, by day 6) amounted to 85%; in data set [1] (10 μM compound, by day 2) it was 85%. The IC50 in data set [5] is 0.4 µM. Moreover, the “percent of viable cells” value is recorded as “significant decrease” in data set [2] (MDA-MB-231, 0.4 μM doxorubicin 24 hours plus 10 μM Compound 35 twice daily for 72 hours, days 2, 4 and 6); “increased substantially” in data set [2] (MDA-MB-231, 10 μM Compound 35 without doxorubicin, by day 6).

Consider `NC(=O)c1sc2nc3c(c(-c4ccc(Cl)o4)c2c1N)CC(c1ccccc1)CC3` (centres unmarked) [Compound 4, 3-Amino-4-(5-chloro-furan-2-yl)-6-phenyl-5,6,7,8-tetrahydro-thieno[2,3-b]quinoline-2-carboxylic acid amide], for which the IC50 in data set [5] came to 10000 µM. In the case of `CC1CC(C)(C)Cc2nc3sc(C(N)=O)c(N)c3c(-c3ccc(Cl)o3)c21` (centres unmarked) [Compound 12, 3-Amino-4-(5-chloro-furan-2-yl)-5,7,7-trimethyl-5,6,7,8-tetrahydro-thieno[2,3-b]quinoline-2-carboxylic acid amide], in data set [5], the IC50 was determined as 5 µM. The same measure, in the same setting: in the case of `Cn1cc(-c2c3c(nc4sc(C(N)=O)c(N)c24)C(C)(C)CC3)cn1` [Compound 29, 3-Amino-7,7-dimethyl-4-(1-methyl-1H-pyrazol-4-yl)-6,7-dihydro-5H-1-thia-8-aza-s-indacene-2-carboxylic acid amide] it was 0.7 µM; in that of `CC1(C)CCc2c1nc1sc(C(N)=O)c(N)c1c2-c1nccs1` [Compound 23, 3-Amino-7,7-dimethyl-4-thiazol-2-yl-6,7-dihydro-5H-1-thia-8-aza-s-indacene-2-carboxylic acid amide], 2 µM. On to `NC(=O)c1sc2nc3c(c(-c4cncs4)c2c1N)C1CCC3C1` (centres unmarked) [Compound 43], for which the IC50 in data set [5] is 0.9 µM. Consider `CC1(C)CCc2nc3sc(C(N)=O)c(N)c3c(-c3cncs3)c2C1` [Compound 33, 3-Amino-6,6-dimethyl-4-thiazol-5-yl-5,6,7,8-tetrahydro-thieno[2,3-b]quinoline-2-carboxylic acid amide], for which, in data set [5], the IC50 was determined as 1.1 µM. Same read-out and setting: in the case of `CC1(C)CCc2c1nc1sc(C(N)=O)c(N)c1c2-c1ccc(Cl)o1` [Compound 9, 3-Amino-4-(5-chloro-furan-2-yl)-7,7-dimethyl-6,7-dihydro-5H-1-thia-8-aza-s-indacene-2-carboxylic acid amide] it was 2.4 µM; in that of `CC1(C)C/C(=C\c2ccc(Cl)o2)c2nc3sc(C(N)=O)c(N)c3c(-c3ccc(Cl)o3)c2C1` [Compound 1, 3-Amino-4-(5-chloro-furan-2-yl)-8-(5-chloro-furan-2-ylmethylene)-6,6-dimethyl-5,6,7,8-tetrahydro-thieno[2,3-b]quinoline-2-carboxylic acid amide], 2.7 µM. As to `Cc1nc(C)c(-c2c3c(nc4sc(C(N)=O)c(N)c24)C(C)(C)CC3)s1` [Compound 41, 3-Amino-4-(2,4-dimethyl-thiazol-5-yl)-7,7-dimethyl-6,7-dihydro-5H-1-thia-8-aza-s-indacene-2-carboxylic acid amide], the IC50 in data set [5] was found to be 0.5 µM. For the compound `CC1(C)CCc2c1nc1sc(C(N)=O)c(N)c1c2-c1sccc1Br` [Compound 34, 3-Amino-4-(3-bromo-thiophen-2-yl)-7,7-dimethyl-6,7-dihydro-5H-1-thia-8-aza-s-indacene-2-carboxylic acid amide], the IC50 in data set [5] was found to be 0.8 µM.
